Results taken from patent US20080194574A1, “Pyrazine Derivatives As Effective Compounds Against Infectious Diseases” (AXXIMA PHARMACEUTICALS AG, priority 2003, published 2008).

Biological target: T1, viral kinase pUL-97 (Human cytomegalovirus, UniProt P16788)
T1 construct: The pUL-97 gene was cloned into a baculovirus vector; GST (glutathione S-transferase) (N); made in house; host or cells: Sf9 insect cells, baculovirus
Assay: UL97 kinase assay on Immobilon plate
Assay type: biochemical
Conditions: inhibition of UL 97 kinase activity; class by IC50 / % inhibition at 10 or 100 μM; read-out: Activity Class [A, B, C]
Method: UL97 Kinase-Assay on Immobilon Plate
The effect of pyrazine derivatives of this invention was tested on the activity of the viral kinase pUL-97. This kinase is derived from human cytomegalovirus (HCMV) (M. Marschall et al., Journal of General Virology, 2001, 82, 1439-1450). The pUL-97 gene was cloned into a baculovirus vector in order to produce GST (glutathione S-transferase) fusion protein. Insect cells (Sf9) were infected and GST-UL-97 purified via glutathione affinity columns according to standard procedures.
The pUL-97 kinase reaction was performed as described (M. Marschall et al., Journal of General Virology, 2001, 82, 1439-1450). Briefly, 10 μl Assay buffer (3 μM ATP, 60 μg/ml myelin basic protein (MBP) as substrate), 1.0 μCi γ-[^33P]ATP and 10 μl Basic buffer (20 mM Tris-HCl pH7.5, 0.5 mM MnCl2, 1 mM DTT (Dithiothreitol)) were given to the test tube before adding various concentrations of pyrazine derivatives. The reaction was started by adding 0.2 μl pUL-97 kinase, purified from infected Sf9-insect cells as described above. The total volume was adjusted with Basic buffer to a final volume of 30 μl. The reaction mix was incubated for 1 hr at 30° C. For negative control, 10 μl 0.1M EDTA (Ethylene Diamine tetraacetate) was added to reaction mix before addition of pUL-97 protein kinase. The reaction was stopped by addition of 10 μl 0.1 M EDTA.
Measuring Incorporation of Radioactivity:
The Immobilon plate (Millipore) was rinsed with 50 μl methanol/well. Following addition of 100 μl 0.1 M EDTA, 20 μl of each kinase reaction mix was added to one well of the Immobilon plate. Each well was washed 4× with 250 μl 0.75% phosphoric acid and 1× with 50 μl methanol. After addition of 50 μl scintillation cocktail (Roth, Germany) per well incorporation of radioactivity was measured using a Betareader (Wallac) and enzymatic activity calculated.

T1 sequence (P16788 whole entry): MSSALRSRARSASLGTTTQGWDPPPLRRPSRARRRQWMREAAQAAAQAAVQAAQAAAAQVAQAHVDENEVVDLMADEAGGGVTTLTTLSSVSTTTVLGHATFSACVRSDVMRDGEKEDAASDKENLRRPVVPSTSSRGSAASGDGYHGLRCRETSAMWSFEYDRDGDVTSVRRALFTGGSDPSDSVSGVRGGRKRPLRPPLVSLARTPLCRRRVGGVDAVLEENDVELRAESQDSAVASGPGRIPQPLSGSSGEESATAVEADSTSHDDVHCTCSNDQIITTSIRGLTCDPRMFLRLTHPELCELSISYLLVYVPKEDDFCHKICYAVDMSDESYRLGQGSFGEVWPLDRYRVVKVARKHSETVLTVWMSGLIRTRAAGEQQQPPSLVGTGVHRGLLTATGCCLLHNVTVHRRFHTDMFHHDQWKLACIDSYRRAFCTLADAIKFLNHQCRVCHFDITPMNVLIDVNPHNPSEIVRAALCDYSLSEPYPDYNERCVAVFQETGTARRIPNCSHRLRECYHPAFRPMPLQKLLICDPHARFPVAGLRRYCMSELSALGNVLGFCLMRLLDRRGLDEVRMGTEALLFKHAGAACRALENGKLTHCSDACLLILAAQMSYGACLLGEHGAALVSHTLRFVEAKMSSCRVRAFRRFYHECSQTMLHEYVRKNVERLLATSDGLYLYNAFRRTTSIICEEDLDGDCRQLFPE

Structure (SMILES) | IC50 [µM]
Cc1ccc(-c2cncc(NCc3ccco3)n2)cc1C [compound 51, [6-(3,4-Dimethyl-phenyl)-pyrazin-2-yl]-furan-2-ylmethyl-amine] | 10 to 100
OCc1cccc(-c2cncc(N3CCN(c4ccncc4)CC3)n2)c1 [compound 52, [3-(4-Pyridin-4-yl-3,4,5,6-tetrahydro-2H-[1,2′]bipyrazinyl-6′-yl)-phenyl]-methanol] | 10 to 100
Clc1cccc(-c2cncc(N3CCN(c4ccccn4)CC3)n2)c1 [compound 53, 6′-(3-Chloro-phenyl)-4-pyridin-2-yl-3,4,5,6-tetrahydro-2H-[1,2′]bipyrazinyl] | 1 to 10
COc1ccc(C(C)C)cc1-c1cncc(N2CCN(c3ccncc3)CC2)n1 [compound 55, 6′-(5-Isopropyl-2-methoxy-phenyl)-4-pyridin-4-yl-3,4,5,6-tetrahydro-2H-[1,2′]bipyrazinyl] | 10 to 100
c1cncc(-c2cncc(N3CCN(c4cccc5[nH]ccc45)CC3)n2)c1 [compound 64, 4-(1H-Indol-4-yl)-6′-pyridin-3-yl-3,4,5,6-tetrahydro-2H-[1,2′]bipyrazinyl] | 1 to 10
CC(=O)c1ccc(-c2cncc(N3CCN(c4ccncc4)CC3)n2)s1 [compound 65, 1-[5-(4-Pyridin-4-yl-3,4,5,6-tetrahydro-2H-[1,2′]bipyrazinyl-6′yl)-thiophen-2-yl]-ethanone] | < 1
c1ccc(-c2cncc(N3CCN(c4ccncc4)CC3)n2)cc1 [compound 67, 6′-Phenyl-4-pyridin-4-yl-3,4,5,6-tetrahydro-2H-[1,2′]bipyrazinyl] | 1 to 10
Nc1ncc(-c2ccc3ccccc3c2)nc1N1CCN(c2ccncc2)CC1 [compound 73, 6′-Naphthalen-2-yl-4-pyridin-4-yl-3,4,5,6-tetrahydro-2H-[1,2′]bipyrazinyl-3′-ylamine] | < 1
CSc1ccc(-c2cnc(N)c(N3CCN(c4ccncc4)CC3)n2)cc1 [compound 75, 6′-(4-Methylsulfanyl-phenyl)-4-pyridin-4-yl-3,4,5,6-tetrahydro-2H-[1,2′]bipyrazinyl-3′-ylamine] | < 1
COc1ccc(-c2cncc(N3CCN(c4ccncc4)CC3)n2)cc1OC [compound 77, 6′-(3,4-Dimethoxy-phenyl)-4-pyridin-4-yl-3,4,5,6-tetrahydro-2H-[1,2′]bipyrazinyl] | < 1
c1cc(N2CCN(c3cncc(-c4ccsc4)n3)CC2)ccn1 [compound 79, 4-Pyridin-4-yl-6′-thiophen-3-yl-3,4,5,6-tetrahydro-2H-[1,2′]bipyrazinyl] | 1 to 10
Clc1cccc(N2CCN(c3cncc(-c4ccsc4)n3)CC2)c1 [compound 80, 4-(3-Chloro-phenyl)-6′-thiophen-3-yl-3,4,5,6-tetrahydro-2H-[1,2′]bipyrazinyl] | 10 to 100
Clc1cccc(N2CCN(c3cncc(-c4ccoc4)n3)CC2)c1 [compound 84, 4-(3-Chloro-phenyl)-6′-furan-3-yl-3,4,5,6-tetrahydro-2H-[1,2′]bipyrazinyl] | 1 to 10
COc1ccccc1N1CCN(c2cncc(-c3ccsc3)n2)CC1 [compound 85, 4-(2-Methoxy-phenyl)-6′-thiophen-3-yl-3,4,5,6-tetrahydro-2H-[1,2′]bipyrazinyl] | 10 to 100
COc1ccccc1N1CCN(c2cncc(-c3ccc4ccccc4c3)n2)CC1 [compound 86, 4-(2-Methoxy-phenyl)-6′-naphthalen-2-yl-3,4,5,6-tetrahydro-2H-[1,2′]bipyrazinyl] | 1 to 10
COc1ccccc1N1CCN(c2cncc(-c3ccccc3C)n2)CC1 [compound 87, 4-(2-Methoxy-phenyl)-6′-o-tolyl-3,4,5,6-tetrahydro-2H-[1,2′]bipyrazinyl] | 10 to 100
NC(=O)c1ccc(-c2cncc(N3CCN(c4cccc(Cl)c4)CC3)n2)cc1 [compound 89, 4-[4-(3-Chloro-phenyl)-3,4,5,6-tetrahydro-2H-[1,2′]bipyrazinyl-6′-yl]-benzamide] | 1 to 10
COc1ccccc1N1CCN(c2cncc(-c3ccoc3)n2)CC1 [compound 90, 6′-Furan-3-yl-4-(2-methoxy-phenyl)-3,4,5,6-tetrahydro-2H-[1,2′]bipyrazinyl] | 1 to 10

Other lines, results leading:

IC50 [µM] | Structure (SMILES)
10 to 100 | c1cncc(-c2cncc(N3CCN(c4ccncc4)CC3)n2)c1 [compound 54, 4-Pyridin-4-yl-6′-pyridin-3-yl-3,4,5,6-tetrahydro-2H-[1,2′]bipyrazinyl]
10 to 100 | Fc1cccc(-c2cncc(N3CCN(c4ccccn4)CC3)n2)c1 [compound 56, 6′-(3-Fluoro-phenyl)-4-pyridin-2-yl-3,4,5,6-tetrahydro-2H-[1,2′]bipyrazinyl]
10 to 100 | Oc1ccc(-c2cncc(N3CCN(c4ccncc4)CC3)n2)cc1 [compound 57, 4-(4-Pyridin-4-yl-3,4,5,6-tetrahydro-2H-[1,2′]bipyrazinyl-6′-yl)-phenol]
10 to 100 | O=C(c1ccco1)N1CCN(c2cncc(-c3cccc(CO)c3)n2)CC1 [compound 58, Furan-2-yl-[6′-(3-hydroxymethyl-phenyl)-2,3,5,6-tetrahydro-[1,2′]bipyrazinyl-4-yl]-methanone]
10 to 100 | NCc1ccc(-c2cncc(N3CCN(C(=O)c4ccco4)CC3)n2)cc1 [compound 59, [6′-(4-Aminomethyl-phenyl)-2,3,5,6-tetrahydro-[1,2′]bipyrazinyl-4-yl]-furan-2-yl-methanone]
10 to 100 | COc1ccc(N2CCN(c3cncc(-c4ccc(CN)cc4)n3)CC2)cc1OC [compound 60, 4-[4-(3,4-Dimethoxy-phenyl)-3,4,5,6-tetrahydro-2H-[1,2′]bipyrazinyl-6′-yl]-benzylamine]
10 to 100 | OCc1ccc(-c2cncc(N3CCN(c4cccc5[nH]ccc45)CC3)n2)cc1 [compound 61, {4-[4-(1H-Indol-4-yl)-3,4,5,6-tetrahydro-2H-[1,2′]bipyrazinyl-6′-yl]-phenyl}-methanol]
1 to 10 | N#Cc1ccccc1N1CCN(c2cncc(-c3ccc(F)c(Cl)c3)n2)CC1 [compound 62, 2-[6′-(3-Chloro-4-fluoro-phenyl)-2,3,5,6-tetrahydro-[1,2′]bipyrazinyl-4-yl]-benzonitrile]
10 to 100 | OCc1cccc(-c2cncc(N3CCN(CCN4CCCC4)CC3)n2)c1 [compound 63, {3-[4-(2-Pyrrolidin-1-yl-ethyl)-3,4,5,6-tetrahydro-2H-[1,2′]bipyrazinyl-6′-yl]-phenyl}-methanol]
< 1 | CSc1ccc(-c2cncc(N3CCN(c4ccncc4)CC3)n2)cc1 [compound 66, 6′-(4-Methylsulfanyl-phenyl)-4-pyridin-4-yl-3,4,5,6-tetrahydro-2H-[1,2′]bipyrazinyl]
< 1 | c1ccc2sc(-c3cncc(N4CCN(c5ccncc5)CC4)n3)cc2c1 [compound 69, 6′-Benzo[b]thiophen-2-yl-4-pyridin-4-yl-3,4,5,6-tetrahydro-2H-[1,2′]bipyrazinyl]
1 to 10 | NC(=O)c1ccc(-c2cnc(N)c(N3CCN(c4ccncc4)CC3)n2)cc1 [compound 74, 4-(3′-Amino-4-pyridin-4-yl-3,4,5,6-tetrahydro-2H-[1,2′]bipyrazinyl-6′-yl)-benzamide]
1 to 10 | Fc1ccc(-c2cncc(N3CCN(c4ccncc4)CC3)n2)cc1 [compound 76, 6′-(4-Fluoro-phenyl)-4-pyridin-4-yl-3,4,5,6-tetrahydro-2H-[1,2′]bipyrazinyl]
1 to 10 | COc1cccc(-c2cncc(N3CCN(c4ccncc4)CC3)n2)c1 [compound 78, 6′-(3-Methoxy-phenyl)-4-pyridin-4-yl-3,4,5,6-tetrahydro-2H-[1,2′]bipyrazinyl]
10 to 100 | Clc1cccc(N2CCN(c3cncc(-c4ccc5ccccc5c4)n3)CC2)c1 [compound 81, 4-(3-Chloro-phenyl)-6′-naphthalen-2-yl-3,4,5,6-tetrahydro-2H-[1,2′]bipyrazinyl]
10 to 100 | Cc1ccccc1-c1cncc(N2CCN(c3cccc(Cl)c3)CC2)n1 [compound 82, 4-(3-Chloro-phenyl)-6′-o-tolyl-3,4,5,6-tetrahydro-2H-[1,2′]bipyrazinyl]
1 to 10 | OCc1ccc(-c2cncc(N3CCN(c4cccc(Cl)c4)CC3)n2)cc1 [compound 83, {4-[4-(3-Chloro-phenyl)-3,4,5,6-tetrahydro-2H-[1,2′]bipyrazinyl-6′-yl]-phenyl}-methanol]
10 to 100 | COc1ccccc1N1CCN(c2cncc(-c3ccc(C(C)(C)C)cc3)n2)CC1 [compound 88, 6′-(4-tert-Butyl-phenyl)-4-(2-methoxy-phenyl)-3,4,5,6-tetrahydro-2H-[1,2′]bipyrazinyl]
10 to 100 | COc1ccc(Cl)cc1-c1cncc(N2CCN(c3ccccc3OC)CC2)n1 [compound 91, 6′-(5-Chloro-2-methoxy-phenyl)-4-(2-methoxy-phenyl)-3,4,5,6-tetrahydro-2H-[1,2′]bipyrazinyl]
